According to US10973880B2, “Compositions and methods for treating pulmonary hypertension” (Acceleron Pharma Inc., priority 2016, dated 2021):

Key:
[1] = test system: rat model of pulmonary arterial hypertension (PAH), monocrotaline (MCT) induced; test: monocrotaline rat model of pulmonary arterial hypertension; assay type: in vivo, Sprague Dawley rats
Method: The effects of an ActRIIA-mFc fusion protein (ActRIIA-mFc homodimer as described in Example 1), an ALK4-Fc-ActRIIB-Fc heterodimer (as described in Examples 12 and 13), and sildenafil (a phosphodiesterase-5 inhibitor approved for the treatment of PAH) were examined in a rat model of pulmonary arterial hypertension (PAH). In this model, Sprague Dawley rats received a […] injection of monocrotaline (MCT) to induce PAH 24 hours prior to start of therapy.
Rats were separated into different treatment groups (10 mice per group): 1) treatment with MCT (60 mg/kg administered i.p. as a single dose at day 1 of study) and Tris buffered saline (i.p. as 1 ml/kg, every three days) (vehicle treatment group), 2) treatment with an ActRIIA-mFc polypeptide (10 mg/kg administered i.p. every three days) and MCT (60 mg/kg administered i.p. as a single dose at day 1 of study), 3) treatment with an ALK4-Fc:ActRIIB-Fc heterodimer (10 mg/kg administered i.p. every three days) and MCT (60 mg/kg administered i.p. as a single dose at day 1 of study), 4) treatment with sildenafil (30 mg/kg administered orally twice daily) and MCT (60 mg/kg administered i.p. as a single dose at day 1 of study), and 5) control rats (Tris buffered saline administered i.p. as 1 ml/kg, every three days). Rats were treated for 28 days. Body weights were recorded prior to first dose on Day 1 and then weekly throughout the study.
On day 28, rats were anesthetized by an intraperitoneal injection of ketamine/xylazine (80/10 mg/kg). An incision was made in the neck, and a jugular vein was isolated and ligated anteriorly. A fluid-filled pressure catheter was introduced into the right jugular vein to measure pulmonary artery pressure (PAP). Another incision was made in the inguinal region, and femoral artery was isolated and ligated anteriorly. A Millar pressure catheter was introduced into a femoral artery to measure systolic arterial pressure, diastolic pressure, and heart rate. Mean arterial pressure and right PAP were monitored using the Notocord HEM (Croissy sur Seine, Frnace) v3.5 data capture system for approximately 5-10 minutes until stable measurements were obtained. During the measurements, rats were maintained at approximately 37° C. on a heating pad and body temperature was monitored throughout the procedure with a rectal temperature probe. At the conclusion of the procedure, rats were euthanized, and the hearts and lungs were removed. The entire heart was weighed. Next, the atria were removed and the left ventricle with septum (LV+S) was separated from the right ventricle (RV). The ventricles were weighed separately. Hypertrophy was assessed, in part, by calculating RV/LV+S. The lungs were also weighed.
Similar trends were observed on vessel muscularity based on histopathologic scoring. After staining tissue samples to detect αSMA/elastin, 100 pulmonary arterioles, between 10 μm and 50 μm in size, per animal were categorized as non-muscularized, partially muscularized, or completely muscularized. Pulmonary arterioles from vehicle treated rats were determined to be 62.3% completely muscularized, 36.4% partially muscularized, and 1.4% non-muscularized. […] Histopathological scoring of smooth muscle hypertrophy of pulmonary arterioles were also recorded as follows: 0 (normal), 1 (minimal), 2 (mild), 3 (moderate), or 4 (marked).

[2] = test system: Sugen Hypoxia model of PAH (semaxanib/hypoxia); test: Sugen Hypoxia rat model of PAH; assay type: in vivo; details: 0 normal, 1 minimal, 2 mild, 3 moderate, 4 marked
Method: The effects of an ActRIIA-mFc fusion protein (ActRIIA-mFc homodimer as described in Example 1 and sildenafil (a phosphodiesterase-5 inhibitor approved for the treatment of PAH) were further examined the Sugen Hypoxia model of PAH. In this model, rats receive daily doses of semaxanib and are placed in a low oxygen environment (approximately 13% oxygen) to induce PAH 24 hours prior to start of therapy.
Rats were separated into different treatment groups (10 mice per group): 1) treatment with semaxanib (200 mg/kg administered s.c. as a single dose daily)/hypoxia and Tris buffered saline (administered i.p. as 1 ml/kg, every three days) (vehicle treatment group), 2) treatment with an ActRIIA-mFc polypeptide (10 mg/kg administered i.p. every three days) and semaxanib (200 mg/kg administered s.c. as a single dose daily)/hypoxia, 3) treatment with sildenafil (30 mg/kg administered orally twice daily) and semaxanib (200 mg/kg administered s.c. as a single dose daily)/hypoxia, and 4) control rats (Tris buffered saline administered i.p. as 1 ml/kg, every three days). Rats were treated for 28 days. Body weights were recorded prior to first dose on Day 1 and then weekly throughout the study.
On day 28, rats were anesthetized by an intraperitoneal injection of ketamine/xylazine (80/10 mg/kg). […] Hypertrophy was assessed, in part, by calculating RV/LV+S. The lungs were also weighed. […]

Substance: ActRIIA-mFc: extracellular domain of human ActRIIa fused to a mouse Fc domain with a minimal linker; homodimer
- smooth muscle hypertrophy of pulmonary arterioles, average histopathological score ([1]; 0 normal, 1 minimal, 2 mild, 3 moderate, 4 marked): 1.6 score
- improvement in body weight ([1]; 28 days, compared to monocrotaline treated rats, proteins 10 mg/kg i.p. every three days, sildenafil 30 mg/kg orally twice daily): did not show improvement
- smooth muscle hypertrophy of pulmonary arterioles, average histopathological score [2]: 1.4 score
